Laboratory results as given in article PMC9257893 (The Onderstepoort Journal of Veterinary Research, 2022).
Values joined by “and” are separate entries in the source; they are usually repeats but may differ in a detail not shown here. Equal entries are not always repeated. Where two headings read alike, the source gives them in different places.

Columns and labels:
[1] = parameters: method as in Naidoo et al. [2007]; conditions: African White-backed Vulture; ref Naidoo et al. [2007]; cited from earlier work
[2] = pigeon; cited from earlier work
[3] = Diclofenac plasma pharmacokinetics in chickens after IV dosing (HPLC, non-compartmental); conditions: for AUC(0-inf): AUCinf; for AUC(0-t): AUClast
Description: Birds still alive after 15 days were terminated by sedation and carbon dioxide asphyxiation.
Scheduled and unscheduled deaths were submitted to the University of Pretoria Paraclinical Department, section of veterinary pathology, for full gross and histological evaluation. Where needed, samples were collected in 10% buffered formalin, sectioned and stained via haematoxylin & eosin (H&E) technique and subjected to histopathologic examination.
Samples were analysed at the University of Pretoria, Veterinary, Paraclinical Department, toxicology and pharmacology laboratory. […] In short, 200 μL of plasma was placed in a 2-mL tube, followed sequentially by 400 μL of diethyl ether and 400 μL of potassium dihydrogen phosphate (0.3 M and pH 3.5). […] The separated organic phase was dried under nitrogen flow at 50 °C until dry.
For analysis, 30 μL was injected at […], and detection at 275 nm.
Concentration-time data generated following HPLC analysis was dose equalised to 1 mg/kg and evaluated by non-compartmental modelling (Kinetica 5.1, Thermo Scientific). The pharmacokinetic parameters maximum plasma concentration (Cmax) and time to maximum plasma concentration (Tmax) were read off the curve.
Area under the plasma curve extrapolated to infinity was calculated as: • AUCinf=AUClast+AUCextra, [Eqn 3] where AUCextra=Clast/β,Clast
is the last measured concentration and β is the terminal elimination portion of the curve gradient, on a natural logarithmic scale.
The half-life of elimination (T1/2) was calculated as: • T1/2=Ln 2/β. [Eqn 4]
Whole plasma clearance (Cl) was calculated as: • Cl=Dose/AUClast. [Eqn 5]
Volume of distribution (Vd) was calculated as: • Vd=Dose/CP0, [Eqn 6] where CP0 was the calculated concentration at time 0.
The mean residence time (MRT) was calculated as: • MRT=Dose Cp0/β. [Eqn 7]

[4] = Gyps vultures; cited from earlier work
[5] = parameters: method as in Naidoo et al. [2007]; conditions: Cape Griffon Vulture; ref Naidoo et al. [2007]; cited from earlier work
[6] = in vivo, iv, 1 mg/kg, control group (diclofenac IV alone), birds alive, GM, dose corrected to 1 mg/kg
[7] = in vivo, iv, 1 mg/kg, control group (diclofenac IV alone), birds dead, GM, dose corrected to 1 mg/kg
[8] = in vivo, iv, test group (fluconazole + diclofenac IV), birds alive, GM, dose corrected to 1 mg/kg
[9] = test group (fluconazole + diclofenac IV), birds alive, GM, dose corrected to 1 mg/kg
[10] = test group (fluconazole + diclofenac IV), birds dead, GM, dose corrected to 1 mg/kg

O=C(O)Cc1ccccc1Nc1c(Cl)cccc1Cl [diclofenac, diclofenac sodium]
MRT [1]: 26.10 h | T1/2 [1]: 16.78 h | T1/2 [2]: < 7 h | Cmax ([3]; chicken (Gallus gallus domesticus), in vivo, iv, mean Cmax, mean value stated in text, chickens, IV diclofenac): 510 ng/mL | Tmax ([3]; chicken (Gallus gallus domesticus), in vivo, iv, mean Tmax, mean value stated in text, chickens, IV diclofenac): 0.38 h | Lz (terminal elimination phase rate constant) ([3]; control group (diclofenac IV alone), birds alive, GM): 0.88 h⁻¹ | AUMClast ([3]; control group (diclofenac IV alone), birds alive, GM, dose corrected to 1 mg/kg): 0.35 μg/mL*(h)^2 | Lz (terminal elimination phase rate constant) ([3]; control group (diclofenac IV alone), birds dead, GM): 0.34 h⁻¹ | AUMClast ([3]; control group (diclofenac IV alone), birds dead, GM, dose corrected to 1 mg/kg): 0.27 μg/mL*(h)^2 | T1/2 of individual birds ([3]; control group birds receiving the two highest doses): 7.01 h and 2.75 h | AUC(0-inf) [3, 6]: 570 ng·h/mL | AUC(0-inf) [3, 7]: 760 ng·h/mL | AUC(0-t) [3, 6]: 460 ng·h/mL | AUC(0-t) [3, 7]: 310 ng·h/mL | Cmax ([3]; in vivo, iv, 1 mg/kg, Cmax, control group (diclofenac IV alone), birds alive, GM, dose corrected to 1 mg/kg): 520 ng/mL | Cmax ([3]; in vivo, iv, 1 mg/kg, Cmax, control group (diclofenac IV alone), birds dead, GM, dose corrected to 1 mg/kg): 240 ng/mL | AUC(0-inf) [3, 8]: 550 ng·h/mL | AUC(0-inf) ([3]; in vivo, iv, test group (fluconazole + diclofenac IV), birds dead, GM, dose corrected to 1 mg/kg): 1130 ng·h/mL | AUC(0-t) ([3]; in vivo, iv, geometric mean, control group, all birds): 400 ng·h/mL | AUC(0-t) ([3]; in vivo, iv, geometric mean, test group (CYP inhibitor), all birds): 500 ng·h/mL | AUC(0-t) [3, 8]: 420 ng·h/mL | clearance ([3]; in vivo, iv, Cl, control group (diclofenac IV alone), birds alive, GM): 29 mL/min/kg | clearance ([3]; in vivo, iv, Cl, control group (diclofenac IV alone), birds dead, GM): 22 mL/min/kg | clearance ([3]; in vivo, iv, Cl, test group (fluconazole + diclofenac IV), birds alive, GM): 30.5 mL/min/kg | clearance ([3]; in vivo, iv, Cl, test group (fluconazole + diclofenac IV), birds dead, GM): 14.7 mL/min/kg | Cmax ([3]; in vivo, iv, Cmax, geometric mean, control group, all birds): 410 ng/mL | Cmax ([3]; in vivo, iv, Cmax, geometric mean, test group (CYP inhibitor), all birds): 610 ng/mL | Cmax ([3]; in vivo, iv, Cmax, test group (fluconazole + diclofenac IV), birds dead, GM, dose corrected to 1 mg/kg): 1240 ng/mL | MRT ([3]; in vivo, iv, control group (diclofenac IV alone), birds alive, GM): 1.17 h | MRT ([3]; in vivo, iv, control group (diclofenac IV alone), birds dead, GM): 3.14 h | MRT ([3]; in vivo, iv, test group (fluconazole + diclofenac IV), birds alive, GM): 1.34 h | MRT ([3]; in vivo, iv, test group (fluconazole + diclofenac IV), birds dead, GM): 1.33 h | half-life ([3]; in vivo, iv, T1/2, control group (diclofenac IV alone), birds alive, GM): 0.79 h | half-life ([3]; in vivo, iv, T1/2, test group (fluconazole + diclofenac IV), birds alive, GM): 0.85 h | half-life ([3]; in vivo, iv, T1/2, test group (fluconazole + diclofenac IV), birds dead, GM): 0.96 h | Tmax ([3]; in vivo, iv, Tmax, control group (diclofenac IV alone), birds alive, GM): 0.4 h | Tmax ([3]; in vivo, iv, Tmax, control group (diclofenac IV alone), birds dead, GM): 0.4 h | Tmax ([3]; in vivo, iv, Tmax, test group (fluconazole + diclofenac IV), birds alive, GM): 0.35 h | Tmax ([3]; in vivo, iv, Tmax, test group (fluconazole + diclofenac IV), birds dead, GM): 0.25 h | Vd ([3]; in vivo, iv, Vss, control group (diclofenac IV alone), birds alive, GM): 2.04 L/kg | Vd ([3]; in vivo, iv, Vss, control group (diclofenac IV alone), birds dead, GM): 4.16 L/kg | Vd ([3]; in vivo, iv, Vss, test group (fluconazole + diclofenac IV), birds alive, GM): 2.44 L/kg | Vd ([3]; in vivo, iv, Vss, test group (fluconazole + diclofenac IV), birds dead, GM): 1.17 L/kg | Vd ([3]; in vivo, iv, Vz, control group (diclofenac IV alone), birds alive, GM): 1.98 L/kg | Vd ([3]; in vivo, iv, Vz, control group (diclofenac IV alone), birds dead, GM): 3.88 L/kg | Vd ([3]; in vivo, iv, Vz, test group (fluconazole + diclofenac IV), birds alive, GM): 2.24 L/kg | Vd ([3]; in vivo, iv, Vz, test group (fluconazole + diclofenac IV), birds dead, GM): 1.23 L/kg | clearance ([3]; in vivo, iv, clearance, geometric mean, control group, all birds): 26.5 mL/min/kg | clearance ([3]; in vivo, iv, clearance, geometric mean, test group (CYP inhibitor), all birds): 25.3 mL/min/kg | Lz (terminal elimination phase rate constant) ([3]; test group (fluconazole + diclofenac IV), birds alive, GM): 0.82 h⁻¹ | AUMClast [3, 9]: 0.34 μg/mL*(h)^2 | Cmax [3, 9]: 480 ng/mL | Lz (terminal elimination phase rate constant) ([3]; test group (fluconazole + diclofenac IV), birds dead, GM): 0.72 h⁻¹ | AUClast [3, 10]: 870 ng·h/mL | AUMClast [3, 10]: 0.63 μg/mL*(h)^2 | T1/2 [4]: > 7 h | MRT [5]: 15.11 h | T1/2 [5]: 12.24 h
